In series [1] the test system is ONCR-1010 with UL30-L774F mutation (ONCR-1012). Description: Acyclovir sensitivity plaque titer assay on Vero cell monolayers. To be noted: 96 h, 90% reduction in plaque titer, 4 days. The series is classed as cell-based, HSV. Here is the method:
(§1) Acyclovir can be used as a prodrug in HSV-TK mediated suicide gene therapy of cancer, which requires its phosphorylation by HSV thymidine kinase (TK). Virus sensitivity to acyclovir was assayed by adding increasing concentrations of the drug to intact Vero cell monolayers and then infecting with a standard dose of virus. The Vero cell monolayers were incubated for 4 days to allow for virus growth, and then the virus was harvested and the corresponding lysates assayed for virus by plaque assay. The IC90 was calculated as the amount of acyclovir that produced a 90% reduction in plaque titer compared to the untreated control.

The next series relates to ONCR-1010. The description is as above. It counts as cell-based, HSV. To be noted: 96 h, 90% reduction in plaque titer, 4 days. The method, then: as §1
For series [2] the following is noted: dosed orally; cited from earlier work.
Series [3] concerns GL261 cells modified to express mNectin1. As to the kind of experiment: Orthotopic mNectin1-expressing GL261 glioblastoma model, intratumoral virus injection, survival. It counts as in vivo, mice. To be noted: co-expressed with the mIL12 and anti-PD1 payload; GL261-luc-N1.
Procedure: In vivo experiments were conducted to test the efficacy of the HSV oncolytic virus encoding different payload molecules against glioblastoma. Two orthotopic mouse models were used. One orthotopic model used CT2A cells modified to express FLuc which enables imaging post-implantation. The other orthotopic model used GL261 cells modified to express mNectin1, which enabled HSV infection, and also to express FLuc which enabled imaging post-implantation. Cells were implanted intracranially in 12-week-old C57B16 mice by stereotactic injection, and one week later the tumors were injected with the indicated viruses.
The control virus contained only the BAC sequences but not the payload sequence. In the first set of experiments, viruses encoding mouse IL-12 (mIL-12) and/or anti-PD-1 antibody and the control virus were each injected intratumorally at the indicated time and dosage according to FIG. 22A and FIG. 22B.
For the combination screens, GL261-luc-N1 cells were intracranially implanted in 12-week-old C57B16 mice, then 1 week later the tumors were injected with the combination of viruses encoding various candidate payloads.
GL261-luc-N1 or CT2A-luc-N1 cells were intracranially implanted in 12-week-old C57B16 mice, then 1 week later the tumors were injected with the indicated viruses.

≈ marks a conversion by molar mass, not a printed value.

Take `Nc1nc2c(ncn2COCCO)c(=O)[nH]1` [acyclovir]: the results for the IC90 (in series [1]; in the series with ONCR-1010) were 1.84 µg/mL (≈ 8.17 µM) and 0.43 µg/mL (≈ 1.91 µM), respectively. The “bioavailability of acyclovir in the CNS” value in series [2] was “about 1.76 ug/ml”.

Consider “15-hydroxyprostaglandin dehydrogenase [PGDH, 15-hydroxyprostaglandin dehydrogenase [NAD(+)]]”, for which the “efficacy in combination screen (survival)” value in series [3] is “improved efficacy”.

The term IC90 denotes the point of the concentration-response curve where the effect stands at 90%. Read a high IC90 as a need for much substance.

These data come from patent publication US20250049867A1, “[…] HERPESVIRUSES” (VIROGIN BIOTECH CANADA LTD., priority 2021, published 2025).
